This is an account of results in patent publication US10105303B2, “Oral care composition comprising zinc amino acid halides” (Colgate-Palmolive Company, priority 2012, dated 2018).

A short description of data set [1]: Deposition/occlusion assay on dentine slices, confocal imaging. Further details: species or system human. To be noted: for Thickness of surface deposits: 16-fold dilution. The procedure: The deposition/occlusion assay is conducted using human dentine slices and the neat solution of Example 5. The dentine slices were prepared by cutting human tooth into thin dentine sections of about 800 microns in thickness, choosing a test side, sanding said test side using a sandpaper of about 600 grit, polishing said test side using a Buehler polishing cloth and 5 micron Buehler aluminum oxide, acid-etching said dentine section in 1% (by weight) citric acid solution for about 20 seconds, sonicating said dentine section for 10 minutes, and storing said dentine section in phosphate buffered saline (PBS, pH 7.4).
For treatment, the neat solution is diluted 16-fold with water, yielding a treatment solution with initial zinc concentration of about 0.149% by weight. The dentine section is immersed in the treatment solution for 1 hour at 37° C. The treated dentine section is then removed from the treatment solution, and rinsed 4 times, each time with 1 mL of PBS. The dentine section is then dried using a paper-based tissue and examined under confocal microscope in both XYZ and XYZ modes. Subsequent treatments are conducted in the same manner.
Dentine sections, as prepared in Example 6, are repeatedly treated with ZLC dilutions with initial zinc concentration of 0.0747% by weight. […] The dentine section is examined under the confocal microscope after each treatment.

Data set [2] can be described thus: Dilution experiment of ZLC neat solution: visible flocculation/precipitation and pH. The format is physicochemical. The note with it: for final pH value: diluted sample. The protocol:
Various dilutions of ZLC are prepared to evaluate its efficiency in producing visible precipitates and/or flocculation, which can be delivered in situ onto an oral surface or into a dental opening, such as open tubules.
A neat solution of ZLC is prepared by 1), reacting 0.5 mole of ZnO powder with 1 mole of lysine HCl in 1 liter of water at room temperature for about 2 hours, and 2) collecting the supernatant through centrifugation followed by filtration using a 0.45 micron membrane. The neat solution has a zinc concentration of 2.39% by weight, and a pH of about 7.03.
Dilution experiment is conducted by mixing the neat solution with deionized water. The neat solution is diluted by 2×, 4×, 6×, 7×, 8×, 10×, 12×, 16×, 20×, 24×, 28×, and 32×, corresponding to initial zinc concentrations of 1.20%, 0.598%, 0.398%, 0.341%, 0.299%, 0.239%, 0.199%, 0.149%, 0.120%, 0.0996%, 0.0854%, 0.0747%, by weight, respectively. The diluted samples are kept at 37° C., and the rates at which flocculation/precipitation occurred are monitored.
pH values of final diluted samples are suitable for oral care applications. […] These pH values were well within the range of 5.5 to 10, which defines the suitable range for oral care formulations.

“And” between values parts separate entries of the source, which are not always exact repeats. Equal values may be shown once.

For [Zn(C6H14N2O2)2Cl]^+Cl^− [ZLC], the “Deposition and occlusion on dentine surface” value was “significant surface deposition” in data set [1] (after 4 consecutive treatments, 0.0747% zinc, 10 minutes each at 37° C.); “complete surface coverage” in data set [1] (after 12 consecutive treatments, 0.0747% zinc, 10 minutes each at 37° C.); “noticeable deposition” in data set [1] (first treatment, 16-fold dilution (about 0.149% zinc), 1 hour at 37° C.); “complete surface coverage, including blocking of substantially all tubule openings” in data set [1] (second treatment, 16-fold dilution (about 0.149% zinc), 1 hour at 37° C.); “complete surface coverage and complete blocking of tubule openings” in data set [1] (third treatment, 16-fold dilution (about 0.149% zinc), 1 hour at 37° C.). In addition, the “Thickness of surface deposits” value is recorded as no less than 10 microns in data set [1] (after second treatment, 1 hour at 37° C.) and no less than 25 microns in data set [1] (after third treatment, 1 hour at 37° C.). The “Visible precipitation during treatment” value in data set [1] (initial zinc concentration 0.0747%, 10 minutes at 37° C.) is “no precipitation is observed by naked eyes”. Moreover, in data set [2] (after a total of 19 hours, 37° C.), the “Samples with flocculation and/or precipitation” value was “all samples except the one with initial zinc concentration of 1.20%”. Further, the “final pH value” was 7.99 in data set [2] (initial zinc concentration 0.0747%); 8.13 in data set [2] (initial zinc concentration 0.0854%); 8.11 in data set [2] (initial zinc concentration 0.0996%); 7.97 in data set [2] (initial zinc concentration 0.120%); 7.99 in data set [2] (initial zinc concentration 0.149%); 6.80 in data set [2] (initial zinc concentration 0.199 wt %). Moreover, the “final pH value” in data set [2] (initial zinc concentration 0.239%) is reported as 6.70. Further, in data set [2] (neat solution, zinc concentration 2.39% by weight), the “pH of the neat solution” value is listed as “about 7.03”. In data set [2] (two hours after mixing, 37° C.), the “Initial zinc concentration of the additional sample with flocculation” value is on record as 0.299%. In data set [2] (within 30 minutes from mixing with water, 37° C.), the “Initial zinc concentrations of dilutions with visible flocculation” value is 0.149% and 0.199%.
